For four compounds, IC50 and pKa results are on record in ChEMBL document CHEMBL1157432, “Effect of linkage geometry on biological activity in thiourea- and guanidine-substituted acridines and platinum-acridines” (Bioorg Med Chem Lett, 2008).

In general, IC50 refers to the midpoint of a concentration-inhibition curve. A word on the pKa: it is the negative logarithm of the acid dissociation constant.

In one data set the test system is HL-60. Kind of data set: Cytotoxicity against human HL60 cells after 72 hrs by MTS method. The format is functional, cell-based. The conditions noted are these: HL-60, 72 h. Background: Tetrazolium assays rely on reduction of a dye to a coloured formazan, in cell work by metabolically active cells.
Another data set has as its system NCI-H460. The data set can be described thus: Cytotoxicity against human NCI-H460 cells after 72 hrs by MTS method. Type of data set: functional, cell-based. The following applies: NCI-H460, 72 h.
A short description of data set [1]: Dissociation constant, pKa of the compound. The format is physicochemical.

`CNC(=S)N(C)CCNC(=O)c1cccc2cc3ccccc3nc12`: the IC50 with HL-60 is above 100 µM; in the data set on NCI-H460 it was 30.9 µM.

Consider `CNC(=N)N(C)CCNc1c2ccccc2nc2ccccc12`, for which the values for the IC50 with HL-60 and with NCI-H460 were 79.7 µM and 10.3 µM, respectively. This compound also registered a pKa in data set [1] of 9.

Consider `CNC(=N)N(C)CCNC(=O)c1cccc2cc3ccccc3nc12`, for which the half-inhibitory concentration (IC50) with HL-60 is 8.4 µM; in the data set with NCI-H460, above 100 µM.

In data set [1], `CNC(=S)N(C)CCNc1c2ccccc2nc2ccccc12` [ACRAMTU] gave a pKa of 9.
